The target in the assay is T1, GST-YTHDC1 (345-509) protein (Homo sapiens, UniProt Q96MU7).
T1 construct: GST-YTHDC1 (345-509) protein
Nature of the assay: Fluorescence polarization-based in vitro enzyme-level test against YTHDC1. Format: binding. The conditions noted are these: read-out: IC50 (Inhibitory Activity against YTHDC1). (In general: Polarisation of emitted light reports the rotation of a fluorescent probe.)

[1] abbreviates: 30 nM GST-YTHDC1 (345-509), FAM-labeled m6A-modified single-stranded oligonucleotide, 18° C., 4 hours.

Like-named read-outs stand apart in the source and are kept apart here.

In general, IC50 refers to the concentration that gives 50% inhibition. As for `CN(C)CCOc1cc(NC(=O)c2cc(C(=O)c3ccccc3C(F)(F)F)c[nH]2)ccc1-c1cnco1` [Compound 98], under setting [1], the IC50 amounted to 15 nM.
Turning to `O=C(Nc1ccc(-c2cnco2)c(F)c1)c1cc(C(=O)c2ccccc2C(F)(F)F)c[nH]1` [Compound 93], the half-inhibitory concentration (IC50) under setting [1] was 8.92 nM.
For the compound `CS(=O)(=O)c1ccccc1-c1ncc(F)c2[nH]c(C(=O)Nc3ccc(-c4cncs4)cc3)cc12` [Compound 58], the IC50 under setting [1] was determined as 80 nM.
In the case of `CC(C)(C)NS(=O)(=O)c1ccccc1-c1nccc2[nH]c(C(=O)Nc3ccc(-c4cncs4)cc3)cc12` [Compound 57], the IC50 under setting [1] was over 50000 nM.
As for `O=C(Nc1ccc(-c2cnco2)cc1)c1cc(C(=O)c2ccccc2N2CCOC2=O)c[nH]1` [Compound 136], the IC50 under setting [1] amounted to 28 nM.
`CS(=O)(=O)c1ccccc1-c1ccnc2[nH]c(C(=O)Nc3ccc(-c4cncs4)cc3)cc12` [Compound 70]: the half-maximal inhibitory concentration (IC50) under setting [1] came out at 2280 nM.
Regarding `O=C(Nc1ccc(-c2ccncc2)cc1)c1cc(C(=O)c2ccccc2C(F)(F)F)c[nH]1` [Compound 24], the IC50 under setting [1] came to 12 nM.
`CN1CCN2c3ccc(NC(=O)c4cc(C(=O)c5ccccc5C(F)(F)F)c[nH]4)cc3OCC2C1` (stereo not drawn) [Compound 92]: the IC50 under setting [1] was determined as 409 nM.
Regarding `CS(=O)(=O)c1ccccc1-c1nccc2[nH]c(C(=O)Nc3ccc(-c4cncnc4)cc3)cc12` [Compound 74], the IC50 under setting [1] was over 50000 nM.
Take `COC(=O)c1cccc(-c2ccc(NC(=O)c3cc(C(=O)c4ccccc4C(F)(F)F)c[nH]3)cc2)c1` [Compound 108]: the IC50 under setting [1] was 183 nM.
On to `O=C(Nc1ccc(C(F)(F)F)cc1)c1cc(C(=O)c2ccccc2C(F)(F)F)c[nH]1` [Compound 18], for which the IC50 under setting [1] worked out at 39 nM.
In the case of `O=C(Nc1ccc(-c2ocnc2CO)cc1)c1cc(C(=O)c2ccccc2C(F)(F)F)c[nH]1` [Compound 94], under setting [1], the IC50 came to 113 nM.
Regarding `O=C(Nc1ccc(-c2ccsc2)cc1)c1cc(C(=O)c2ccccc2C(F)(F)F)c[nH]1` [Compound 26], the IC50 under setting [1] is 64 nM.
With `O=C(Nc1ccc(-c2cnco2)cc1)c1cc(C(=O)c2ccccc2C2=COCC2)c[nH]1` [Compound 145], the IC50 under setting [1] came out at 39 nM.
As to `O=C(Nc1ccc2c(c1)CCN2c1ccccc1)c1cc(C(=O)c2ccccc2C(F)(F)F)c[nH]1` [Compound 133], the IC50 under setting [1] is 747 nM.
With `CS(=O)(=O)c1ccccc1-c1nccc2[nH]c(C(=O)Nc3ccc(-c4ccncc4)cc3)cc12` [Compound 73], the IC50 under setting [1] was 6270 nM.
For `O=C1CC2C=C(c3ccc(NC(=O)c4cc(C(=O)c5ccccc5C(F)(F)F)c[nH]4)cc3)C=CC2N1` (stereo not drawn) [Compound 126], under setting [1], the 50% inhibitory concentration (IC50) came to 13 nM.
In the case of `O=C(Nc1cccnc1)c1cc(C(=O)c2c(Br)ccc(F)c2F)c[nH]1` [Compound 4], the IC50 under setting [1] is over 50000 nM.
Regarding `CS(=O)(=O)c1ccccc1-c1nccc2cc(C(=O)Nc3ccc(-c4cncs4)cc3)[nH]c12` [Compound 50], the IC50 under setting [1] was determined as 67 nM.
`O=C(Nc1ccc(-c2cnc(N3CCN(C4COC4)CC3)o2)cc1)c1cc(C(=O)c2ccccc2C(F)(F)F)c[nH]1` [Compound 88]: the concentration for half-maximal inhibition (IC50) under setting [1] worked out at 71.2 nM.
The same measure, in the same setting: next, `CN1CCN(c2ccc(-c3ccc(NC(=O)c4cc(C(=O)c5ccccc5C(F)(F)F)c[nH]4)cc3)cc2)CC1` [Compound 109]: 44 nM; `CC(=O)c1ccccc1-c1nccc2[nH]c(C(=O)Nc3ccc(-c4cncs4)cc3)cc12` [Compound 51]: over 50000 nM.
Regarding `O=C(Nc1ccc(-c2cnc(N3CCCCC3)s2)cc1)c1cc(C(=O)c2ccccc2C(F)(F)F)c[nH]1` [Compound 37], the IC50 under setting [1] is 335 nM.
The same measure, in the same setting: next, `O=C(Nc1ccc(-c2cnco2)cc1)c1cc(C(=O)c2ccccc2N2CC3CCC2CO3)c[nH]1` (stereo not drawn) [Compound 134]: 99 nM; `O=C(Nc1ccc(-c2cnc(N3CCN(S(=O)(=O)Cc4ccccc4)CC3)o2)cc1)c1cc(C(=O)C2C=CC=CC2C(F)(F)F)c[nH]1` (stereo not drawn) [Compound 89]: over 50000 nM.
On the same count and under the same terms, the same measure for `Cc1cc(-c2cnco2)ccc1NC(=O)c1cc(C(=O)c2ccccc2C(F)(F)F)c[nH]1` [Compound 95]: 39 nM; for `CCN(C)c1ncc(-c2ccc(NC(=O)c3cc(C(=O)c4ccccc4C(F)(F)F)c[nH]3)cc2)o1` [Compound 103]: 14 nM; for `O=C(Nc1ccc(-c2cncs2)cc1)c1cc2c(-c3ccccc3F)nccc2[nH]1` [Compound 53]: over 50000 nM.
Consider `C[Si]1(C)CCN(c2ccccc2C(=O)c2c[nH]c(C(=O)Nc3ccc(-c4cnco4)cc3)c2)CC1` [Compound 122], for which the IC50 worked out at 83 nM.
`O=C(Nc1ccc(C(F)(F)F)c(F)c1)c1cc(C(=O)c2ccccc2C(F)(F)F)c[nH]1` [Compound 113]: the IC50 under setting [1] was found to be 54 nM.
For `O=C(Nc1cccnc1)c1cc(C(=O)c2ccccc2Cl)c[nH]1` [Compound 8], the 50% inhibitory concentration (IC50) under setting [1] was determined as 2840 nM.
Turning to `CS(=O)(=O)Nc1ccccc1-c1nccc2[nH]c(C(=O)Nc3ccc(-c4cncs4)cc3)cc12` [Compound 52], under setting [1], the IC50 was 660 nM.
Still for that read-out and setting: next, `O=C(Nc1ccc2c(c1)OCC1CNCCN21)c1cc(C(=O)c2ccccc2C(F)(F)F)c[nH]1` (stereo not drawn) [Compound 91]: 937 nM; `O=C(Nc1ccc(S(=O)(=O)Nc2ccccc2)cc1)c1cc(C(=O)c2ccccc2C(F)(F)F)c[nH]1` [Compound 123]: 118 nM; `CN1CCN(c2ncc(-c3ccc(NC(=O)c4cc(C(=O)c5ccccc5Br)c[nH]4)cc3)o2)CC1` [Compound 80]: 344 nM.
In the case of `CC1CCN(c2ccccc2C(=O)c2c[nH]c(C(=O)Nc3ccc(-c4cnco4)cc3)c2)CC1` [Compound 125], under setting [1], the IC50 came out at 13 nM.
As to `O=C(Nc1ccc(-c2ccoc2)cc1)c1cc(C(=O)c2ccccc2C(F)(F)F)c[nH]1` [Compound 25], the IC50 under setting [1] was determined as 36 nM.
`CN1C(=O)Cc2cc(-c3ccc(NC(=O)C4=CC(C(=O)c5ccccc5C(F)(F)F)CN4)cc3)ccc21` (stereo not drawn) [Compound 107]: the IC50 under setting [1] was found to be 22 nM.
For `O=C(Nc1ccc(-c2cncs2)cc1)c1cc2c(-c3ccccc3CO)nccc2[nH]1` [Compound 45], the IC50 under setting [1] is over 50000 nM.
As for `O=C(Nc1ccc(-c2cncs2)cc1)c1cc2c(-c3ccc(C(F)(F)F)cc3C(F)(F)F)nccc2[nH]1` [Compound 48], under setting [1], the IC50 was over 50000 nM.
For the compound `O=C(Nc1ccc(-c2cnco2)cc1)c1cc(C(=O)c2ccccc2N2CCC(c3ccccc3)C2)c[nH]1` (stereo not drawn) [Compound 151], the IC50 under setting [1] came to 1560 nM.
Consider `O=C(Nc1ccc(-c2cncs2)cc1)c1cc2c(-c3ccccc3C3CC3)nccc2[nH]1` [Compound 66], for which, under setting [1], the IC50 is over 50000 nM.
Still for that read-out and setting: next, `O=C(Nc1ccc(-c2cncs2)cc1)c1cc2c(-c3ccccc3[N+](=O)[O-])nccc2[nH]1` [Compound 55]: 278 nM; `O=C(Nc1ccc(-c2cnc(N3CCN(C4COC4)CC3)o2)cc1)c1cc(C(=O)c2ccccc2Br)c[nH]1` [Compound 85]: 234 nM; `N#Cc1ccc(-c2ccc(NC(=O)c3cc(C(=O)c4ccccc4C(F)(F)F)c[nH]3)cc2)s1` [Compound 31]: 15 nM.
Take `O=C(Nc1ccc(-c2cnc(N3CCNCC3)o2)cc1)c1cc(C(=O)c2ccccc2C(F)(F)F)c[nH]1` [Compound 81]: under setting [1], the half-maximal inhibitory concentration (IC50) was determined as 61 nM.
With `COC(=O)c1cc(C(F)(F)F)ccc1NC(=O)c1cc(C(=O)c2ccccc2C(F)(F)F)c[nH]1` [Compound 117], the IC50 under setting [1] was at least 50000 nM.
The same measure, in the same setting: the same measure for `CN1CCN(c2ccccc2C(=O)c2c[nH]c(C(=O)Nc3ccc(-c4cnco4)cc3)c2)CC1` [Compound 139]: 1050 nM.
For `O=C(Nc1ccc(-c2cnc(N3CCOCC3)o2)cc1)c1cc(C(=O)c2ccccc2C(F)(F)F)c[nH]1` [Compound 77], the IC50 under setting [1] was 67 nM.
Regarding `C[C@H]1CN(c2ccccc2C(=O)c2c[nH]c(C(=O)Nc3ccc(-c4cnco4)cc3)c2)CCO1` [Compound 148], the IC50 under setting [1] was found to be 66 nM.
Still for that read-out and setting: next, `O=C(Nc1ccc(-c2cnco2)cc1)c1cc(C(=O)c2ccccc2N2CCCC2=O)c[nH]1` [Compound 121]: 25 nM; `O=C(Nc1ccc(-c2cnco2)cc1)c1cc(C(=O)c2ccccc2N2CCOCC2)c[nH]1` [Compound 138]: 20 nM.
In the case of `O=C(Nc1cccnc1)c1cc(C(=O)c2ccccc2F)c[nH]1` [Compound 7], under setting [1], the IC50 was over 50000 nM.
`O=C(Nc1ccc(-c2cncs2)cc1)c1cc2c(-c3ccncc3C(F)(F)F)nccc2[nH]1` [Compound 49]: the half-maximal inhibitory concentration (IC50) under setting [1] was over 50000 nM.
In the case of `CN(C)c1ccccc1-c1nccc2[nH]c(C(=O)Nc3ccc(-c4cncs4)cc3)cc12` [Compound 61], under setting [1], the IC50 was 2510 nM.
Turning to `CN(C)c1ncc(-c2ccc(NC(=O)c3cc(C(=O)c4ccccc4C(F)(F)F)c[nH]3)cc2)o1` [Compound 75], the IC50 under setting [1] was determined as 8.5 nM.
With `O=C(Nc1ccc(-c2cnco2)cc1)c1cc(C(=O)c2ccccc2C2CCCC2)c[nH]1` [Compound 146], under setting [1], the 50% inhibitory concentration (IC50) turned out to be 21 nM.
Regarding `CC(=O)c1ccc(NC(=O)c2cc(C(=O)c3ccccc3C(F)(F)F)c[nH]2)cc1` [Compound 19], the IC50 under setting [1] amounted to 31 nM.
Same read-out and setting: next, `O=C(Nc1ccc(-c2cncs2)cc1)c1cc2c(-c3ccccc3-c3ccccc3)nccc2[nH]1` [Compound 64]: 1130 nM; `O=C(Nc1ccc(-c2ccccn2)cc1)c1cc(C(=O)c2ccccc2C(F)(F)F)c[nH]1` [Compound 22]: 23 nM; `O=C(Nc1ccc(C(=O)N2CCC3(CC2)OCc2ccccc23)cc1)c1cc(C(=O)c2ccccc2C(F)(F)F)c[nH]1` [Compound 120]: at least 50000 nM.
On to `O=C(Nc1cccc(F)c1)c1cc(C(=O)c2ccccc2C(F)(F)F)c[nH]1` [Compound 14], for which the IC50 under setting [1] was found to be 248 nM.
On to `O=C(Nc1ccc(-c2cnco2)cc1)c1cc(C(=O)c2ccccc2N2CCCCCCC2)c[nH]1` [Compound 141], for which the IC50 under setting [1] was determined as 189 nM.
In the case of `O=C(Nc1ccc(-c2cnc(N3CCC3)o2)cc1)c1cc(C(=O)c2ccccc2C(F)(F)F)c[nH]1` [Compound 104], the IC50 under setting [1] worked out at 9 nM.
For `CC(C)n1nccc1-c1nccc2[nH]c(C(=O)Nc3ccc(-c4cncs4)cc3)cc12` [Compound 40], the IC50 under setting [1] was over 50000 nM.
Turning to `CCN1CCN(c2ccccc2C(=O)c2c[nH]c(C(=O)Nc3ccc(-c4cnco4)cc3)c2)CC1` [Compound 135], the IC50 under setting [1] was determined as 2820 nM.

Source of the values: patent US20260265222A1, “1H-PYRROLE-2-AMIDE DERIVATIVE, PHARMACEUTICAL COMPOSITION AND METHOD FOR TREATING AND/OR PREVENTING YTHDC1-RELATED DISEASES” (priority 2023, published 2026).
